Experimental findings from ChEMBL document CHEMBL5291721, “A preclinical secondary pharmacology resource illuminates target-adverse drug reaction associations of marketed drugs” (Nat Commun, 2023) are described below.

Among the targets are Melanocortin receptor 4 (Homo sapiens, UniProt P32245); Adenosine receptor A2a (Homo sapiens, UniProt P29274); Vasopressin V2 receptor (Homo sapiens, UniProt P30518); Motilin receptor (Homo sapiens, UniProt O43193).
Assay [1] deals with Glutamate receptor ionotropic, NMDA 1 (Rattus norvegicus, UniProt P35439).
Assay [2] deals with Kappa-type opioid receptor (Homo sapiens, UniProt P41145).
Kappa-type opioid receptor, sequence (P41145 whole entry): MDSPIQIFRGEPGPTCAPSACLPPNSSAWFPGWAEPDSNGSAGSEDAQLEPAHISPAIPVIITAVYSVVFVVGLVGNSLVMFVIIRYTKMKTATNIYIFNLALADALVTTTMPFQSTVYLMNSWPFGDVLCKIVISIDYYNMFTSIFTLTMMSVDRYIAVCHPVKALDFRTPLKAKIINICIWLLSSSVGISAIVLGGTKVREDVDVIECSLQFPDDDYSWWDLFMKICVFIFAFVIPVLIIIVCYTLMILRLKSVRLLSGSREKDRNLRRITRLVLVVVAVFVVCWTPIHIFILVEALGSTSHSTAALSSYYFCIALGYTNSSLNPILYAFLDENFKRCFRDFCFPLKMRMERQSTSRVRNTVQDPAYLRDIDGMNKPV
Assay [3] deals with T1, 5-hydroxytryptamine receptor 1A (Homo sapiens, UniProt P08908).
T1 sequence (P08908 whole entry): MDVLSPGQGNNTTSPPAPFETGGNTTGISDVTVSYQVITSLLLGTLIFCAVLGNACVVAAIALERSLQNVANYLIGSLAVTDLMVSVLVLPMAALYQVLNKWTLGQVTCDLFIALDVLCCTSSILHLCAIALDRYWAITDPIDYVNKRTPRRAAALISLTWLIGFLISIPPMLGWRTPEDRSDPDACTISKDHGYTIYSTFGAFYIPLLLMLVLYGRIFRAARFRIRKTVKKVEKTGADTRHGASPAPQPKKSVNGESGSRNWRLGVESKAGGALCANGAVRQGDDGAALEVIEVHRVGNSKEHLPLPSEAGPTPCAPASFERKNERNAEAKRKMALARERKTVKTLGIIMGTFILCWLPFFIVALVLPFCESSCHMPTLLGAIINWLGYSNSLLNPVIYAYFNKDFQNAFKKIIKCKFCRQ
It is filed as functional, cell-based.

Assay [4] addresses T2, Neuropeptide Y receptor type 1 (Homo sapiens, UniProt P25929).
T2 sequence (P25929 whole entry): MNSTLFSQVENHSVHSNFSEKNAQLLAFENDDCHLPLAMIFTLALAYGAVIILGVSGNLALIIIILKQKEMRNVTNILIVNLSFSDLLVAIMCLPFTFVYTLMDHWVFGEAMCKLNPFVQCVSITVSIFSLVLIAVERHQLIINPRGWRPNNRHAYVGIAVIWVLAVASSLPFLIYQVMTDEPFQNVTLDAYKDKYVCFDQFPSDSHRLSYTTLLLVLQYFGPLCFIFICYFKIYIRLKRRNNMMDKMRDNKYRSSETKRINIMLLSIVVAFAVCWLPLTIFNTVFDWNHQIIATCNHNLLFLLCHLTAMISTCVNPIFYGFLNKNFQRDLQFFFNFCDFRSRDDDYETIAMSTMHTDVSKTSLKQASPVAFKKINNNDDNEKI

Assay [5] has as its target Voltage-gated inwardly rectifying potassium channel KCNH2 (Homo sapiens, UniProt Q12809). It is filed as functional. The following applies: read-out: AC50.
Assay [6] addresses T3, Cannabinoid receptor 1 (Homo sapiens, UniProt P21554). It is filed as functional, cell-based.
Assay [7] has as its target T4, Equilibrative nucleoside transporter 1 (Homo sapiens, UniProt Q99808).
T4 sequence (Q99808 whole entry): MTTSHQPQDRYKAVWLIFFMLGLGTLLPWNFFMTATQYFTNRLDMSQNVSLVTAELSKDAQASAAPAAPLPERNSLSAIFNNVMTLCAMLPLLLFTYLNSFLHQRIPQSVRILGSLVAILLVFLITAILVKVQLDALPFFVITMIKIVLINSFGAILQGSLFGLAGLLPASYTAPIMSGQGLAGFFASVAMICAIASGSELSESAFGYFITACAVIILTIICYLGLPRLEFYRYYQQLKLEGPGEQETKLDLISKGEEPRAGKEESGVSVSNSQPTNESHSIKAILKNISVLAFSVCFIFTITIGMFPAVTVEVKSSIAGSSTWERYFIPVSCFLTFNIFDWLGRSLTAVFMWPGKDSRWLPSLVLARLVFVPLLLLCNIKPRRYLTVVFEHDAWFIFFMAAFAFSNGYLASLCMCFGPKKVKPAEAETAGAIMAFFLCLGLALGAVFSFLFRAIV

Assay [8] concerns the target Gamma-aminobutyric acid receptor subunit alpha-1 (Rattus norvegicus, UniProt P62813).
Assay [9] has as its target T5, Alpha-2A adrenergic receptor (Homo sapiens, UniProt P08913).
T5 sequence (P08913 whole entry): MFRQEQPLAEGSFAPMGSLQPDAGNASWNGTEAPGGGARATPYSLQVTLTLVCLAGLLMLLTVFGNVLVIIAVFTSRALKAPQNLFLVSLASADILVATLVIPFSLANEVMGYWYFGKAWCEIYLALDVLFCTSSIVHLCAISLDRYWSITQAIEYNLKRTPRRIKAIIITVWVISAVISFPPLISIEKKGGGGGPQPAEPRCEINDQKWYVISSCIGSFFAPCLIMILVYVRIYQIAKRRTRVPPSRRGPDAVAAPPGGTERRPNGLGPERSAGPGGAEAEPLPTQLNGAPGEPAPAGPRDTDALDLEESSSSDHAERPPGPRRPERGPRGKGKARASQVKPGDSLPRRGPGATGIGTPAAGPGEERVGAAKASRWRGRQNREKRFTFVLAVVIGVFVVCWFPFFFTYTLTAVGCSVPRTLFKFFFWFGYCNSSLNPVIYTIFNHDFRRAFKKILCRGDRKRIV
It is filed as functional, cell-based.

Assay [10] deals with Beta-1 adrenergic receptor (Homo sapiens, UniProt P08588). It is filed as functional.
Beta-1 adrenergic receptor, sequence (P08588 whole entry): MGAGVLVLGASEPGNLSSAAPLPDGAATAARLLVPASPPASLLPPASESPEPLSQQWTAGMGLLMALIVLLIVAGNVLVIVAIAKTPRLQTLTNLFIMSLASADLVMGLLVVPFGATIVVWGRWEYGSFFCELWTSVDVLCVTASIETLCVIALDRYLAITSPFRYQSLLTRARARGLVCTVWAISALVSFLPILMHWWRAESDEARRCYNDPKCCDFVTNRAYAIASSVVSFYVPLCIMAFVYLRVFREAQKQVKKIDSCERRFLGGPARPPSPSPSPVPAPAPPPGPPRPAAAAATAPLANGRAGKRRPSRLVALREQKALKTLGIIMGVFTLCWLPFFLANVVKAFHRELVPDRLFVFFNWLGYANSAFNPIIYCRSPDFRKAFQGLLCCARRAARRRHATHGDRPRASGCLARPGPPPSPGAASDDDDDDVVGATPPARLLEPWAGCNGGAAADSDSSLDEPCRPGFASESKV
Assay [11] has as its target T6, Alpha-1A adrenergic receptor (Homo sapiens, UniProt P35348).
T6 sequence (P35348 whole entry): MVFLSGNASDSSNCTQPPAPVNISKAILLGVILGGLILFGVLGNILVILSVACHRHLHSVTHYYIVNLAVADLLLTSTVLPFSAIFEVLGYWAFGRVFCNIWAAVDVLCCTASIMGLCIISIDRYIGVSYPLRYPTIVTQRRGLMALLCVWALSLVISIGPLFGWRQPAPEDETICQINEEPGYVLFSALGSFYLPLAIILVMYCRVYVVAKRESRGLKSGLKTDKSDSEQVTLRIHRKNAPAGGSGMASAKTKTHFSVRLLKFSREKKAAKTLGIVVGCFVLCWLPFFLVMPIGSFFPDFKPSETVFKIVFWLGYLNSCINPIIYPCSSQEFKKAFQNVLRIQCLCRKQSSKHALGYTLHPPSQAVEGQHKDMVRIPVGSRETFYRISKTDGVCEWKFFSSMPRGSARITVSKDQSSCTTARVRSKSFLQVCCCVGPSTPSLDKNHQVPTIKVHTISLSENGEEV
It is filed as functional, cell-based.

Assay [12] addresses T3, Cannabinoid receptor 1. It is filed as functional, cell-based. This is another data set of the same source.
Assay [13] concerns the target T6, Alpha-1A adrenergic receptor.
Further: assay procedure not described here.

Vasopressin V2 receptor, sequence (P30518 whole entry): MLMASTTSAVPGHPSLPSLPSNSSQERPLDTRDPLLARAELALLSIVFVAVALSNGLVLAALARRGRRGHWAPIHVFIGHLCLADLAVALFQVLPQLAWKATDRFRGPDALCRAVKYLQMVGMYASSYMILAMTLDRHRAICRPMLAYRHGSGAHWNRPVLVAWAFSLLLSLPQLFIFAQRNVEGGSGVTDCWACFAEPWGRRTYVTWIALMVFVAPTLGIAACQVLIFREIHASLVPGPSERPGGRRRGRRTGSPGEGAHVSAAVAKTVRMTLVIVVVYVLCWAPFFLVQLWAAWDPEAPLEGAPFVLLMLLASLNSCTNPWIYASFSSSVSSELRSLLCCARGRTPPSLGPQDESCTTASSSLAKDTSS
Adenosine receptor A2a, sequence (P29274 whole entry): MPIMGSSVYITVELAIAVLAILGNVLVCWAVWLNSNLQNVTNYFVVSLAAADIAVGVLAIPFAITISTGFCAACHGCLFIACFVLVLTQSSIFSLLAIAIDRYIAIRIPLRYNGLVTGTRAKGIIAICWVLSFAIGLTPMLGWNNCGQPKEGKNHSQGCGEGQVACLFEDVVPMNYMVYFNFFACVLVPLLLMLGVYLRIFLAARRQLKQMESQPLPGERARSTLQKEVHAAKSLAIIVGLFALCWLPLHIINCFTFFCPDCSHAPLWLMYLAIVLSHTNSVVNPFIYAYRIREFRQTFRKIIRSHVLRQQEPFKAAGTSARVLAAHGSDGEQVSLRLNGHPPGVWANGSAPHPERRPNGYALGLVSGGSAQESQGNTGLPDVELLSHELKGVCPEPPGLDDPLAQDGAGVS
Melanocortin receptor 4, sequence (P32245 whole entry): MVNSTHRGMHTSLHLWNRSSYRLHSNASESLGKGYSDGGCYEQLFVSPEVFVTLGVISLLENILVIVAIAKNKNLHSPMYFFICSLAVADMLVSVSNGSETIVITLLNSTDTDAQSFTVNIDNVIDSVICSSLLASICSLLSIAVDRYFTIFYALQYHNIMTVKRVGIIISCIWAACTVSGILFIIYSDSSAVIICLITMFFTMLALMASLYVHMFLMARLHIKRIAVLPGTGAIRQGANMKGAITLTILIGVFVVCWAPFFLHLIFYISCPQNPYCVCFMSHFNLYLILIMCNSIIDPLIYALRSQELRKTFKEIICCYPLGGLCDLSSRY
Gamma-aminobutyric acid receptor subunit alpha-1, sequence (P62813 whole entry): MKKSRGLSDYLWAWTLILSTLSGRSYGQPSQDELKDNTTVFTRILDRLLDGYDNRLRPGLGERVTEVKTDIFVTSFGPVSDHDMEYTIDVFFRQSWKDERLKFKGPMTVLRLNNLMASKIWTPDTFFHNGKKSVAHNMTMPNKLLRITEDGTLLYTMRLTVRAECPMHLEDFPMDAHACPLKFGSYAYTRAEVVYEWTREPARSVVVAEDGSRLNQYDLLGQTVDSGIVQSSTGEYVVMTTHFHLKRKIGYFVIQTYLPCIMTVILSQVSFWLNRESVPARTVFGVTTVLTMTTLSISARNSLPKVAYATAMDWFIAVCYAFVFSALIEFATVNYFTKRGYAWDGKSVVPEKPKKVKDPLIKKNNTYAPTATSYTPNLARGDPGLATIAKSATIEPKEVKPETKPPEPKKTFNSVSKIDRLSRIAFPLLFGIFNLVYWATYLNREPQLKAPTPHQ
T3 sequence (P21554 whole entry): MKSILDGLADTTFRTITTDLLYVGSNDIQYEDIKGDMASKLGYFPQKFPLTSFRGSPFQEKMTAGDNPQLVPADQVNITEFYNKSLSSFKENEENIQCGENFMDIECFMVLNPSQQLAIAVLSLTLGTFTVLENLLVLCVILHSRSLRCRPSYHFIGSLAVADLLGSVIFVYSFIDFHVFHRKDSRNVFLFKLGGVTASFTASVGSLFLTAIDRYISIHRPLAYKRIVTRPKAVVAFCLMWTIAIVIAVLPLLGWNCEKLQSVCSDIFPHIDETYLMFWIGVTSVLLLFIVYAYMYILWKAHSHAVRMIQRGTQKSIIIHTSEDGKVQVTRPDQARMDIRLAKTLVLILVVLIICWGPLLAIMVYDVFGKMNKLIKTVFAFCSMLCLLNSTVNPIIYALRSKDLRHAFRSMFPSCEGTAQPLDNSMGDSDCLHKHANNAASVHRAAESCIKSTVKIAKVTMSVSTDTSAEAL
Motilin receptor, sequence (O43193 whole entry): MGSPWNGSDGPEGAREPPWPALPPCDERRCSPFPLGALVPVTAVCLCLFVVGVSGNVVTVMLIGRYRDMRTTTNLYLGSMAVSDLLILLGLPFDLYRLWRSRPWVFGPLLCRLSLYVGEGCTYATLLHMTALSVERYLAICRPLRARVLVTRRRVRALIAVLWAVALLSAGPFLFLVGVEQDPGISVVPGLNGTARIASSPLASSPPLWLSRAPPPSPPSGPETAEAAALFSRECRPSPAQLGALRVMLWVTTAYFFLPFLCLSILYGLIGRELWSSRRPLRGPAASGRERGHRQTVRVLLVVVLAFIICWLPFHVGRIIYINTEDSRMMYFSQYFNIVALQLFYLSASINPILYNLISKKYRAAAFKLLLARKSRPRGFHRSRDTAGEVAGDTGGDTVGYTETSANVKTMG
Voltage-gated inwardly rectifying potassium channel KCNH2, sequence (Q12809 whole entry): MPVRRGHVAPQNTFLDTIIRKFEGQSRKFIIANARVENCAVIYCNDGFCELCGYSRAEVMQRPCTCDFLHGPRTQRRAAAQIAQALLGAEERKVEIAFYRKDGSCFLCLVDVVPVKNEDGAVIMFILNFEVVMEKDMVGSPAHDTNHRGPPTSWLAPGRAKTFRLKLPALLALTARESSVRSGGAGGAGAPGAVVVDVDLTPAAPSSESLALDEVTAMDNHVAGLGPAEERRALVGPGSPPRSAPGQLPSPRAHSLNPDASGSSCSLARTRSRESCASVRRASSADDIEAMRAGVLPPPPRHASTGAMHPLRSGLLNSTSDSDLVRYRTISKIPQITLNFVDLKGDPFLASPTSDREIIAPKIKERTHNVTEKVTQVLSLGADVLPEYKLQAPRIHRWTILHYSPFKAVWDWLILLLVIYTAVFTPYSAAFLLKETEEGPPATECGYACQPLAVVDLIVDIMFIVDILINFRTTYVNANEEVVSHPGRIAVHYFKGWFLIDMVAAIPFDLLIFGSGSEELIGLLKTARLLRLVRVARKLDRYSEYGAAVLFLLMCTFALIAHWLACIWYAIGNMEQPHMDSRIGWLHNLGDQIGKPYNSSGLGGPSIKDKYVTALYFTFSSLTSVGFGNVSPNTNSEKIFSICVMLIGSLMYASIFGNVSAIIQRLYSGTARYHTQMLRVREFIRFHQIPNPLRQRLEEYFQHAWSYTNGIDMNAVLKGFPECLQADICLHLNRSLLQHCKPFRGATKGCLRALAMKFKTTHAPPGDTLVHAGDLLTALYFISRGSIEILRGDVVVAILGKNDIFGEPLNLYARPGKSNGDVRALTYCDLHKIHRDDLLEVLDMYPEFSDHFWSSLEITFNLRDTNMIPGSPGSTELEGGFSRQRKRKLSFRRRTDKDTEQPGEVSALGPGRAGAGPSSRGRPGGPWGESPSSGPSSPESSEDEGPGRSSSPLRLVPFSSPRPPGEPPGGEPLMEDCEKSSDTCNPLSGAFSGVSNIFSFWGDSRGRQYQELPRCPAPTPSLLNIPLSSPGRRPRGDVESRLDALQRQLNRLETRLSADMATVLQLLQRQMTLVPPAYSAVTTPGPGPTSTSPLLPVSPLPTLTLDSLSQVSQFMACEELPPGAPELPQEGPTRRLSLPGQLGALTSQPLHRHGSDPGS

For the compound `CC1Cc2ccccc2N1NC(=O)c1ccc(Cl)c(S(N)(=O)=O)c1` (configuration not stated) [INDAPAMIDE], the AC50 was > 10 µM in [1]; > 10 µM in assay [2]; > 30 µM in assay [3]; > 30 µM in assay [4]; > 30 µM in [5]; > 30 µM on Cannabinoid receptor 1 [6]. Moreover, the AC50 in assay [7] is > 30 µM; in assay [8], > 10 µM; in assay [9], > 10 µM; in assay [10], > 10 µM; in [11], > 30 µM; on Melanocortin receptor 4, > 30 µM. The AC50 was > 30 µM on Cannabinoid receptor 1 [12]; > 30 µM at Adenosine receptor A2a; > 10 µM in assay [13]; > 30 µM at Vasopressin V2 receptor; > 10 µM on Motilin receptor.

`O=C(C[S+]([O-])Cc1ccco1)NC/C=C\COc1cc(CN2CCCCC2)ccn1` (configuration not stated) [LAFUTIDINE]: the half-maximal activity concentration (AC50) in [1] is > 10 µM; in assay [2] it was > 10 µM; in [3], > 30 µM; in assay [4] it was > 10 µM; in assay [5], > 30 µM; at Cannabinoid receptor 1 [6], > 30 µM. Moreover, the AC50 is > 10 µM in assay [7]; > 10 µM in assay [8]; > 10 µM in assay [9]; > 10 µM in [10]; > 30 µM in assay [11]; > 10 µM on Melanocortin receptor 4. For the same compound, the AC50 at Cannabinoid receptor 1 [12] was > 30 µM; on Adenosine receptor A2a, > 10 µM; in [13], > 10 µM; at Vasopressin V2 receptor, > 10 µM; at Motilin receptor it was > 10 µM.

For `CC(C)(C)NCC(O)COc1cccc2c1CC(O)C(O)C2` (configuration not stated) [NADOLOL], the AC50 in [1] was > 10 µM; in assay [2], > 10 µM; in assay [3], > 10 µM; in assay [4], > 10 µM; in [5], > 30 µM; at Cannabinoid receptor 1 [6], > 30 µM. Further, the AC50 in assay [7] was > 10 µM; in assay [8], > 10 µM; in assay [9], > 10 µM; in assay [10] it was 0.102 µM; in [11] it was > 30 µM; at Melanocortin receptor 4, > 10 µM. The AC50 at Cannabinoid receptor 1 [12] was > 30 µM; on Adenosine receptor A2a, > 10 µM; in assay [13], > 10 µM; on Vasopressin V2 receptor, > 10 µM; on Motilin receptor it was > 10 µM.

With `CC1NCCOC1c1ccccc1` (configuration not stated) [PHENMETRAZINE], the AC50 in assay [1] is > 10 µM; in assay [2] it was > 10 µM; in [3] it was > 10 µM; in assay [4], > 30 µM; in assay [5] it was > 30 µM; on Cannabinoid receptor 1 [6], > 30 µM. The AC50 in assay [7] was > 30 µM; in assay [8] it was > 10 µM; in [9] it was > 10 µM; in assay [10], > 10 µM; in [11], 14 µM; on Melanocortin receptor 4, > 30 µM. For the same compound, the AC50 is > 30 µM on Cannabinoid receptor 1 [12]; > 30 µM at Adenosine receptor A2a; > 10 µM in [13]; > 30 µM at Vasopressin V2 receptor; > 10 µM on Motilin receptor.

As for `CC(C)(N)Cc1ccccc1` [PHENTERMINE], the concentration at half-maximal activity (AC50) was > 10 µM in assay [1]; > 10 µM in assay [2]; > 10 µM in assay [3]; > 30 µM in assay [4]; > 30 µM in assay [5]; > 30 µM on Cannabinoid receptor 1 [6]. Also, the AC50 is > 30 µM in assay [7]; > 10 µM in [8]; > 10 µM in assay [9]; > 10 µM in assay [10]; > 30 µM in [11]; > 30 µM on Melanocortin receptor 4. For the same compound, the AC50 on Cannabinoid receptor 1 [12] is > 30 µM; at Adenosine receptor A2a it was > 30 µM; in assay [13] it was > 10 µM; at Vasopressin V2 receptor, > 30 µM; on Motilin receptor it was > 10 µM.

With `CC(C(=O)O)c1ccc(C(=O)c2ccccc2)s1` (configuration not stated) [TIAPROFENIC ACID], the AC50 in assay [1] was > 10 µM; in assay [2], > 10 µM; in assay [3] it was > 10 µM; in assay [4], > 10 µM; in assay [5] it was 9.26 µM; at Cannabinoid receptor 1 [6], > 30 µM. In addition, the AC50 in [7] is > 10 µM; in [8], > 10 µM; in [9] it was > 10 µM; in assay [10] it was > 10 µM; in [11], > 30 µM; at Melanocortin receptor 4 it was > 10 µM. Besides, the AC50 at Cannabinoid receptor 1 [12] is > 30 µM; at Adenosine receptor A2a, > 10 µM; in assay [13] it was 10 µM; at Vasopressin V2 receptor it was > 10 µM; at Motilin receptor, > 10 µM.
